Assay results: PMC6476926, “Dichloro-Phenyl-Benzotriazoles: A New Selective Class of Human Respiratory Syncytial Virus Entry Inhibitors” (Frontiers in Chemistry, 2019)

Experiments:
[1] = Cytotoxicity, MTT method, Vero-76 cells; conditions: African green monkey (Cercopithecus aethiops)
RSV = experiment: microbe, parasite or virus in culture; format: cell-based, Human Respiratory Syncytial Virus (RSV) strain A2; conditions: human respiratory syncytial virus, Vero 76, read-out: EC50 RSV
[2] = Cytotoxicity, MTT method, MT-4 cells; conditions: human
CV-B5 = experiment: microbe, parasite or virus in culture; format: cell-based, Human Enterovirus B [coxsackie type B5 (CV-B5)]; conditions: Enterovirus B, CVB5, Vero 76, read-out: EC50 CV-B5
YFV = experiment: microbe, parasite or virus in culture; format: cell-based; conditions: Yellow fever virus, BHK, read-out: EC50 YFV
[3] = Cytotoxicity, MTT method, BHK cells; conditions: Syrian hamster (Mesocricetus auratus)
Sb-1, VSV, VV, HSV-1 = experiment: organism not typed; format: cell-based; conditions: Vero 76, read-out: EC50 Sb-1, VSV, VV, HSV-1
BVDV = experiment: microbe, parasite or virus in culture; format: cell-based; conditions: Bovine viral diarrhea virus isolates and strains, MDBK, read-out: EC50 BVDV
in vitro = conditions: cattle (Bos taurus)
Reo-1 = experiment: microbe, parasite or virus in culture; format: cell-based, Reovirus type-1 (Reo-1); conditions: Reovirus sp., BHK, read-out: EC50 Reo-1
HIV-1IIIB = experiment: microbe, parasite or virus in culture; format: cell-based, Human Immunodeficiency Virus type-1 (HIV-1); conditions: Human immunodeficiency virus 1, MT4, read-out: EC50 HIV-1IIIB

What does the source list for O=C(Nc1ccc(-n2nnc3cc(Cl)c(Cl)cc32)cc1)c1ccc([N+](=O)[O-])cc1 [7e, N-[4-(5,6-dichloro-1H-benzo[d][1,2,3]triazol-1-yl)phenyl]-4-nitrobenzamide]?
CC50 at 5 days [1]: > 100 µM; EC50 (RSV): 13 µM; CC50 [2]: > 100 µM; EC50 (CV-B5): > 100 µM; EC50 (YFV): > 96 µM; CC50 [3]: 96 µM; EC50 (Sb-1, VSV, VV, HSV-1): > 100 µM; EC50 (BVDV): > 100 µM; CC50 (in vitro): > 100 µM; EC50 (Reo-1): > 96 µM; EC50 (HIV-1IIIB): > 100 µM; melting point: 238 to 240 °C

With O=C(Nc1ccc(-n2nnc3cc(Cl)c(Cl)cc32)cc1)c1ccc(Cl)cc1 [7f, N-[4-(5,6-dichloro-1H-benzo[d][1,2,3]triazol-1-yl)phenyl] 4-chlorobenzamide] as the molecule, how does the CC50 at 5 days [1] read?
The CC50 at 5 days was > 100 µM.

And the EC50 (RSV)?
The EC50 was 8 µM.

And the CC50 [2]?
The CC50 was > 100 µM.

And the EC50 (CV-B5)?
The EC50 was > 100 µM.

And the EC50 (YFV)?
The EC50 was > 84 µM.

What about the CC50 [3] of the same molecule?
Its CC50 is 84 µM.

What about the EC50 (Sb-1, VSV, VV, HSV-1) of the same molecule?
The EC50 was > 100 µM.

And the EC50 (BVDV)?
The EC50 was > 100 µM.

What about the CC50 (in vitro) of the same molecule?
Its CC50 is > 100 µM.

What about the EC50 (Reo-1) of the same molecule?
The EC50 was > 84 µM.

And the EC50 (HIV-1IIIB)?
Its EC50 is > 100 µM.

And the melting point?
The melting point was 234 to 236 °C.

For O=C(Nc1ccc(-n2nnc3cc(Cl)c(Cl)cc32)cc1)c1ccc(C(F)(F)F)cc1 [7g, N-[4-(5,6-dichloro-1H-benzo[d][1,2,3]triazol-1-yl)phenyl]-4-(trifluoromethyl)benzamide], which CC50 at 5 days [1] is on record?
The CC50 at 5 days was 9 µM.

And the EC50 (RSV)?
Its EC50 is 5 µM.

And the CC50 [2]?
Its CC50 is > 100 µM.

And the EC50 (CV-B5)?
Its EC50 is > 90 µM.

What about the EC50 (YFV) of the same molecule?
The EC50 was > 100 µM.

And the CC50 [3]?
The CC50 was > 100 µM.

What about the EC50 (Sb-1, VSV, VV, HSV-1) of the same molecule?
Its EC50 is > 90 µM.

What about the EC50 (BVDV) of the same molecule?
The EC50 was > 100 µM.

What about the CC50 (in vitro) of the same molecule?
The CC50 was > 100 µM.

And the EC50 (Reo-1)?
The EC50 was > 100 µM.

And the EC50 (HIV-1IIIB)?
The EC50 was > 100 µM.

And the melting point?
Its melting point is > 290 °C.

For N#Cc1ccc(C(=O)Nc2ccc(-n3nnc4cc(Cl)c(Cl)cc43)cc2)cc1 [7h, N-[4-(5,6-dichloro-1H-benzo[d][1,2,3]triazol-1-yl)phenyl] 4-cyanobenzamide], which CC50 at 5 days [1] is on record?
Its CC50 at 5 days is > 100 µM.

And the EC50 (RSV)?
Its EC50 is 11 µM.

What about the CC50 [2] of the same molecule?
The CC50 was > 100 µM.

And the EC50 (CV-B5)?
The EC50 was > 100 µM.

And the EC50 (YFV)?
The EC50 was > 100 µM.

What about the CC50 [3] of the same molecule?
Its CC50 is > 100 µM.

And the EC50 (Sb-1, VSV, VV, HSV-1)?
The EC50 was > 100 µM.

What about the EC50 (BVDV) of the same molecule?
Its EC50 is > 100 µM.

And the CC50 (in vitro)?
The CC50 was > 100 µM.

What about the EC50 (Reo-1) of the same molecule?
Its EC50 is > 100 µM.

And the EC50 (HIV-1IIIB)?
The EC50 was > 100 µM.

And the melting point?
Its melting point is 227 to 229 °C.

Which CC50 at 5 days [1] does the source give for O=C(Nc1ccc(-n2nc3cc(Cl)c(Cl)cc3n2)cc1)c1ccccc1 [8a, N-[4-(5,6-dichloro-2H-benzo[d][1,2,3]triazol-2-yl)phenyl]benzamide] here?
Its CC50 at 5 days is > 100 µM.

What about the EC50 (RSV) of the same molecule?
Its EC50 is > 100 µM.

And the CC50 [2]?
Its CC50 is > 100 µM.

And the EC50 (CV-B5)?
The EC50 was > 100 µM.

What about the EC50 (YFV) of the same molecule?
Its EC50 is > 100 µM.

And the CC50 [3]?
Its CC50 is > 100 µM.

What about the EC50 (Sb-1, VSV, VV, HSV-1) of the same molecule?
Its EC50 is > 100 µM.

What about the EC50 (BVDV) of the same molecule?
Its EC50 is > 100 µM.

And the CC50 (in vitro)?
The CC50 was > 100 µM.

And the EC50 (Reo-1)?
The EC50 was > 100 µM.

And the EC50 (HIV-1IIIB)?
The EC50 was > 100 µM.

And the melting point?
The melting point was > 290 °C.

For Cc1ccc(C(=O)Nc2ccc(-n3nc4cc(Cl)c(Cl)cc4n3)cc2)cc1 [8b, N-[4-(5,6-dichloro-2H-benzo[d][1,2,3]triazol-2-yl)phenyl]-4-methylbenzamide], which CC50 at 5 days [1] is on record?
The CC50 at 5 days was > 100 µM.

And the EC50 (RSV)?
The EC50 was 27 µM.

What about the CC50 [2] of the same molecule?
The CC50 was > 100 µM.

And the EC50 (CV-B5)?
Its EC50 is > 100 µM.

What about the EC50 (YFV) of the same molecule?
The EC50 was 73 µM.

What about the CC50 [3] of the same molecule?
Its CC50 is > 100 µM.

And the EC50 (Sb-1, VSV, VV, HSV-1)?
Its EC50 is > 100 µM.

What about the EC50 (BVDV) of the same molecule?
Its EC50 is > 100 µM.

And the CC50 (in vitro)?
Its CC50 is > 100 µM.

What about the EC50 (Reo-1) of the same molecule?
The EC50 was > 100 µM.

What about the EC50 (HIV-1IIIB) of the same molecule?
Its EC50 is > 100 µM.

What about the melting point of the same molecule?
Its melting point is 210 to 213 °C.

For COc1ccc(C(=O)Nc2ccc(-n3nc4cc(Cl)c(Cl)cc4n3)cc2)cc1 [8c, N-[4-(5,6-dichloro-2H-benzo[d][1,2,3]triazol-2-yl)phenyl]-4-methoxybenzamide], which CC50 at 5 days [1] is on record?
The CC50 at 5 days was > 100 µM.

And the EC50 (RSV)?
The EC50 was > 100 µM.

What about the CC50 ([2]; MT-4 cells (mock-infected)) of the same molecule?
Its CC50 is > 100 µM.

What about the EC50 (CV-B5) of the same molecule?
The EC50 was 14 µM.

What about the EC50 (YFV) of the same molecule?
Its EC50 is > 100 µM.

What about the CC50 ([3]; BHK cells (BHK-21, mock-infected)) of the same molecule?
Its CC50 is > 100 µM.

And the EC50 (Sb-1, VSV, VV, HSV-1)?
The EC50 was > 100 µM.

What about the EC50 (BVDV) of the same molecule?
Its EC50 is > 100 µM.

What about the CC50 (in vitro) of the same molecule?
Its CC50 is > 100 µM.

And the EC50 (Reo-1)?
Its EC50 is > 100 µM.

What about the EC50 (HIV-1IIIB) of the same molecule?
Its EC50 is > 100 µM.

And the melting point?
Its melting point is 274 to 276 °C.
